Data reported in patent publication US9434734B2, “Substituted pyrazoloquinazolinones and pyrroloquinazolinones as allosteric modulators of group II metabotropic glutamate receptors” (Domain Therapeutics, priority 2012, dated 2016).

Legend:
[1] = biological target: T1, human mGluR2 (hmGluR2) transiently over-expressed in HEK-293 cells (Homo sapiens, UniProt Q14416); assay: Human mGluR2 negative allosteric modulator evaluation using Ca++ functional assay (agonist and NAM activity); format: cell-based; conditions: hmGluR2 in HEK-293 cells, EC80 glutamate, Fluo4AM calcium readout; read-out: mGluR2 negative allosteric modulator activity IC50
T1 construct: expressed in transfected cells; host or cells: HEK-293 cells, transient co-transfection by electroporation
Protocol: Human mGluR2 Negative Allosteric Modulator Evaluation Using Ca^++ Functional Assay
Compounds of the present invention were tested successively for their agonist and negative allosteric modulator activities on human mGluR2 (hmGluR2) transiently over-expressed in HEK-293 cells. They exert agonist activity if they are able to activate mGluR2 by themselves, i.e., in absence of the endogenous agonist glutamate; and they exert negative allosteric modulator activity if they decrease the action of the endogenous agonist glutamate.
HEK-293 cells were maintained in Modified Eagle's Medium supplemented with 10% Foetal Calf Serum, 1% Penicillin/Streptomycin and 1% nonessential amino acids at 37° C./5% CO2.
Cells were plated after transfection onto polyornithine coated, clear bottom, black-walled, 96-well plates and cultured for 24 h.
Receptor activity was detected by changes in intracellular calcium measured using the fluorescent Ca^2+ sensitive dye, Fluo4AM (Molecular Probes).
The day of the assay, medium was aspirated and replaced during 3 hours by medium without serum supplemented with 1% Glutamax, 1% Penicillin/Streptomycin and 1% nonessential amino acids. Then, cells were washed with freshly prepared buffer B (HBSS 1× (PAA), Hepes 20 mM, MgSO4-7H2O 1 mM, Na2CO3 3.3 mM, CaCl2-2H2O 1.3 mM, 0.5% BSA, Probenecid 2.5 mM) and loaded at 37° C./5% CO2 for 1.5 hours with buffer B containing 1 μM Fluo4AM, 0.1 mg/mL Pluronic Acid, 7 μg/mL Glutamate Pyruvate Transaminase and 2 mM sodium pyruvate. Afterwards cells were washed twice with buffer B and 50 μL of this buffer were added to each well.
Agonist and negative allosteric modulator activities of compounds were consecutively evaluated on the same cells plate. […] Then, the cells were stimulated by an EC80 glutamate concentration and fluorescence was recorded for additional 60 s. EC80 glutamate concentration is the concentration giving 80% of the maximal glutamate response. Agonist and/or negative allosteric modulator activity(ies) were evaluated in comparison to basal signal or signal evoked by EC80 glutamate alone, respectively.
For potency determination, a dose-response test was performed using 8 concentrations of each compound of the invention. Dose-response curves were fitted using the sigmoidal dose-response (variable slope) analysis in GraphPad Prism program (Graph Pad Inc) and EC50 of agonist/IC50 of negative allosteric modulator activity was calculated. Dose-response experiments were all performed in duplicate, two times independently.

T1 sequence (Q14416 19-872): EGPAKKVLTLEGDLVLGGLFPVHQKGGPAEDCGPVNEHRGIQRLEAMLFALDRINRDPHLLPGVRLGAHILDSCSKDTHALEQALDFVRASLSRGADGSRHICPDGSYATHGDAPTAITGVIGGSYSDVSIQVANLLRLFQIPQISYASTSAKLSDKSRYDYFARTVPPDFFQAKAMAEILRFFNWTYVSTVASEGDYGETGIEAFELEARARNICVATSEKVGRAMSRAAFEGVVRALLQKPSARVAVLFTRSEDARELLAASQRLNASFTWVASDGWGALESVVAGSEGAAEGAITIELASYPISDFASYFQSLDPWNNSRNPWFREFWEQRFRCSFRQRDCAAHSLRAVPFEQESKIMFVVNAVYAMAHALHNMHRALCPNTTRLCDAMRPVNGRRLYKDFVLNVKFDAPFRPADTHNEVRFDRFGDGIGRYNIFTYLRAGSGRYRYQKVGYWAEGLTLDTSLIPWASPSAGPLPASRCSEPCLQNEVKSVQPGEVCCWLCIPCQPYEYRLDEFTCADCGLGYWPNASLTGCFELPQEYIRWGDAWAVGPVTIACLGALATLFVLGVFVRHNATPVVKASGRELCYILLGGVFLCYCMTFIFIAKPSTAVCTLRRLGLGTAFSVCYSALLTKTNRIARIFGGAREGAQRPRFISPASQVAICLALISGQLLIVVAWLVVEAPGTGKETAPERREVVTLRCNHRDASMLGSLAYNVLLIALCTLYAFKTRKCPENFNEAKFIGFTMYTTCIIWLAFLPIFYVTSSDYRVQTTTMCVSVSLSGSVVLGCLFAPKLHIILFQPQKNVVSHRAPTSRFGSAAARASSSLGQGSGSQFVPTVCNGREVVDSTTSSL

Compound	IC50 [1] [nM]	melting point [°C]
Cc1n[nH]cc1-c1ccc2c(=O)n(C)c3cc(C4CCCCC4)nn3c2c1 [Example 75, 2-Cyclohexyl-4-methyl-8-(3-methyl-1H-pyrazol-4-yl)-4H-pyrazolo[1,5-a]quinazolin-5-one]	< 1000	> 250
Cl.Cn1c(=O)c2ccc(-c3cnc(N)cn3)cc2n2nc(-c3ccccc3)cc12 [Example 30, 8-(5-Amino-pyrazin-2-yl)-4-methyl-2-phenyl-4H-pyrazolo[1,5-a]quinazolin-5-one]	< 1000	192 to 193
Cc1cc(-c2ccc3c(=O)n(C)c4cc(-c5ccccc5)nn4c3c2)cc(C)n1.Cl [Example 37, 8-(2,6-Dimethyl-pyridin-4-yl)-4-methyl-2-phenyl-4H-pyrazolo[1,5-a]quinazolin-5-one]	< 1000	> 250
Cc1cc(-c2ccc3c(=O)n(C)c4cc(C5CCCCCC5)nn4c3c2)cc(C)n1.Cl [Example 77, 2-Cycloheptyl-8-(2,6-dimethyl-pyridin-4-yl)-4-methyl-4H-pyrazolo[1,5-a]quinazolin-5-one]	< 1000	> 250
Cc1cc(-c2cc3n(C)c(=O)c4ccc(-c5cnn(C)c5)cc4n3n2)cc(C)n1.Cl [Example 122, 2-(2,6-Dimethyl-pyridin-4-yl)-4-methyl-8-(1-methyl-1H-pyrazol-4-yl)-4H-pyrazolo[1,5-a]quinazolin-5-one]	< 1000	> 250
CC(=O)c1cccc(-c2ccc3c(=O)n(C)c4cc(-c5ccccc5)nn4c3c2)c1 [Example 14, 8-(3-Acetyl-phenyl)-4-methyl-2-phenyl-4H-pyrazolo[1,5-a]quinazolin-5-one]	< 1000	207 to 209
Cn1c(=O)c2ccc(-c3ccnc(C(F)(F)F)c3)cc2n2nc(-c3ccnc(C(F)(F)F)c3)cc12 [Example 139, 4-Methyl-2,8-bis-(2-trifluoromethyl-pyridin-4-yl)-4H-pyrazolo[1,5-a]quinazolin-5-one]	< 1000	> 250
Cl.Cn1cc(-c2cc3n(C)c(=O)c4ccc(-c5cccnc5)cc4n3n2)cn1 [Example 126, 4-Methyl-2-(1-methyl-1H-pyrazol-4-yl)-8-pyridin-3-yl-4H-pyrazolo[1,5-a]quinazolin-5-one]	< 1000	> 250
Cl.Nc1ccc(-c2ccc3c(=O)n(CC(F)(F)F)c4cc(-c5ccccc5)nn4c3c2)cn1 [Example 45, 8-(6-Amino-pyridin-3-yl)-2-phenyl-4-(2,2,2-trifluoro-ethyl)-4H-pyrazolo[1,5-a]quinazolin-5-one]	< 1000	227 to 230
Cl.Cn1c(=O)c2ccc(-c3cccnc3)cc2n2nc(C3CCOCC3)cc12 [Example 89, 4-Methyl-8-pyridin-3-yl-2-(tetrahydro-pyran-4-yl)-4H-pyrazolo[1,5-a]quinazolin-5-one]	< 1000	202 to 224
CCn1c(=O)c2ccc(-c3cc(C)nc(C)c3)cc2n2nc(C3CCCC3)cc12.Cl [Example 70, 2-Cyclopentyl-8-(2,6-dimethyl-pyridin-4-yl)-4-ethyl-4H-pyrazolo[1,5-a]quinazolin-5-one]	< 1000	> 250
Cc1ncccc1-c1ccc2c(=O)n(C)c3cc(-c4ccnc(C(F)(F)F)c4)nn3c2c1.Cl [Example 135, 4-Methyl-8-(2-methyl-pyridin-3-yl)-2-(2-trifluoromethyl-pyridin-4-yl)-4H-pyrazolo[1,5-a]quinazolin-5-one]	< 1000	> 250
Cn1c(=O)c2ccc(-c3ccc(S(N)(=O)=O)cc3)cc2n2nc(-c3ccccc3)cc12 [Example 10, 4-(4-Methyl-5-oxo-2-phenyl-4,5-dihydro-pyrazolo[1,5-a]quinazolin-8-yl)-benzenesulfonamide]	< 1000	> 250
CCCc1cc2n(C)c(=O)c3ccc(-c4ccc(N)nc4)cc3n2n1.Cl [Example 50, 8-(6-Amino-pyridin-3-yl)-4-methyl-2-propyl-4H-pyrazolo[1,5-a]quinazolin-5-one]	< 1000	> 250
Cn1c(=O)c2ccc(-c3cccc(C#N)c3)cc2n2nc(-c3ccccc3)cc12 [Example 35, 3-(4-Methyl-5-oxo-2-phenyl-4,5-dihydro-pyrazolo[1,5-a]quinazolin-8-yl)-benzonitrile]	< 1000	> 250
Cn1c(=O)c2ccc(-c3cccc(S(=O)(=O)NC(C)(C)CO)c3)cc2n2nc(C3CCOCC3)cc12 [Example 101, N-(2-Hydroxy-1,1-dimethyl-ethyl)-3-[4-methyl-5-oxo-2-(tetrahydro-pyran-4-yl)-4,5-dihydro-pyrazolo[1,5-a]quinazolin-8-yl]-benzenesulfonamide]	< 1000	223 to 226
Cl.Cn1cc(-c2cc3n(C)c(=O)c4ccc(-c5ccncc5)cc4n3n2)cn1 [Example 129, 4-Methyl-2-(1-methyl-1H-pyrazol-4-yl)-8-pyridin-4-yl-4H-pyrazolo[1,5-a]quinazolin-5-one]	< 1000	> 250
Cn1c(=O)c2ccc(-c3cccc(C#N)c3)cc2n2nc(C3CCOCC3)cc12 [Example 88, 3-[4-Methyl-5-oxo-2-(tetrahydro-pyran-4-yl)-4,5-dihydro-pyrazolo[1,5-a]quinazolin-8-yl]-benzonitrile]	< 1000	210 to 216
Cl.Cn1c(=O)c2ccc(-c3cnc(N)nc3)cc2n2nc(-c3ccccc3)cc12 [Example 31, 8-(2-Amino-pyrimidin-5-yl)-4-methyl-2-phenyl-4H-pyrazolo[1,5-a]quinazolin-5-one]	< 1000	> 250
Cn1c(=O)c2ccc(-c3ccc(F)nc3)cc2n2nc(-c3ccnc(C(F)(F)F)c3)cc12 [Example 141, 8-(6-Fluoro-pyridin-3-yl)-4-methyl-2-(2-trifluoromethyl-pyridin-4-yl)-4H-pyrazolo[1,5-a]quinazolin-5-one]	< 1000	> 250
Cn1c(=O)c2ccc(-c3c[nH]nc3C(F)(F)F)cc2n2nc(-c3ccccc3)cc12 [Example 19, 4-Methyl-2-phenyl-8-(3-trifluoromethyl-1H-pyrazol-4-yl)-4H-pyrazolo[1,5-a]quinazolin-5-one]	< 1000	> 250
Cc1n[nH]c(C)c1-c1ccc2c(=O)n(C)c3cc(-c4ccccc4)nn3c2c1 [Example 15, 8-(3,5-Dimethyl-1H-pyrazol-4-yl)-4-methyl-2-phenyl-4H-pyrazolo[1,5-a]quinazolin-5-one]	< 1000	> 250
Cc1n[nH]cc1-c1ccc2c(=O)n(C)c3cc(-c4ccccc4)nn3c2c1 [Example 18, 4-Methyl-8-(3-methyl-1H-pyrazol-4-yl)-2-phenyl-4H-pyrazolo[1,5-a]quinazolin-5-one]	< 1000	174 to 176
Cc1nc(N)ccc1-c1ccc2c(=O)n(C)c3cc(-c4ccccc4)nn3c2c1.Cl [Example 25, 8-(6-Amino-2-methyl-pyridin-3-yl)-4-methyl-2-phenyl-4H-pyrazolo[1,5-a]quinazolin-5-one]	< 1000	218 to 220
Cc1n[nH]cc1-c1ccc2c(=O)n(C)c3cc(-c4ccc(F)cc4)nn3c2c1 [Example 81, 2-(4-Fluoro-phenyl)-4-methyl-8-(3-methyl-1H-pyrazol-4-yl)-4H-pyrazolo[1,5-a]quinazolin-5-one]	< 1000	> 250
Cn1c(=O)c2ccc(-c3ncco3)cc2n2nc(-c3ccccc3)cc12 [Example 20, 4-Methyl-8-oxazol-2-yl-2-phenyl-4H-pyrazolo[1,5-a]quinazolin-5-one]	< 1000	228 to 231
Cl.Cn1c(=O)c2ccc(-c3ccc(N)nc3)cc2n2nc(C3CCSCC3)cc12 [Example 83, 8-(6-Amino-pyridin-3-yl)-4-methyl-2-(tetrahydro-thiopyran-4-yl)-4H-pyrazolo[1,5-a]quinazolin-5-one]	< 1000	> 250
Cn1cc(-c2ccc3c(=O)n(C)c4cc(-c5ccccc5)nn4c3c2)cn1 [Example 16, 4-Methyl-8-(1-methyl-1H-pyrazol-4-yl)-2-phenyl-4H-pyrazolo[1,5-a]quinazolin-5-one]	< 1000	> 250
